How the values were obtained:
[1] = target: human GLP1R (hGLP1R) (Homo sapiens, UniProt P43220); experiment: Human GLP1R cAMP agonist assay (GloSensor); format: cell-based; settings: HEK293-SNAP-hGLP1R-GloSensor cells; for Emax: read-out: Emax mean; for EC50: intracellular cAMP, mean n=3 where SEM is given
Protocol: Compounds 1 to 31 were tested in the following cellular assays that measure the intracellular cAMP concentration, beta-arrestin recruitment and receptor internalization. The cAMP is generated by the activation of GLP1R. The cAMP data obtained is shown in Table 1 (where S.E.M. is included, mean n=3 independent experiments+/−S.E.M). Beta-arrestin is recruited upon activation of GLP1R and the data obtained are shown in Table 2 (mean n=2 independent experiments, +/−S.D). The extent to which the GLP1R is internalized into the cell and away from the plasma membrane following activation is also shown in Table 2 (mean n=2 independent experiments, +/−S.D). EC50 for each assay is defined as the concentration of the compound that leads to half of the maximum response (after baseline correction). Emax is defined as the maximum response observed for the test compound, normalized to the maximum response observed for the endogenous ligand (GLP1(7-36)) to GLP1R.
Human GLP1R cAMP Agonist Assay
The agonist activity of compounds was determined using the GloSensor™ cAMP Assay (Promega Corp.), which measures changes in the intracellular concentration of cAMP after ligand activation of GPCRs. The assay uses a biosensor encoded by pGloSensor™-22F cAMP plasmid (Promega, cat #E2301) with cAMP binding domains fused to a mutant form of Photinus pyralis luciferase. Binding to cAMP causes conformational changes that promote large increases in light output, which can be measured by a luminescence detector. HEK293-SNAP-hGLP1R-GloSensor cells stably overexpressing the human GLP1 receptor (hGLP1R) and pGloSensor™-22F were seeded in white 384-well poly-D-Lysine coated plates (Greiner Bio One, cat #781945) in CO2-independent media (Gibco cat #18045-088 with 1.0% FBS, 2 mM L-glutamine, penicillin and streptomycin) and incubated overnight at 37° C., 5% CO2 with humidity. The assay was started the following morning by adding an equal volume of CO2-independent media containing 4% v/v dilution of the GloSensor substrate (Promega, cat #E1291) to all wells. The cell plate was incubated at rt for 2 h in the dark. The Biomek 7 (Beckman Coulter) instrument was used for the liquid handling steps. To generate duplicate dose response curves, 3-fold serially diluted compounds were added in to the cell assay plate to a final volume of 60 μL with final concentrations ranging from 30 μM through 0.06 μM in CO2-independent media containing 0.1% BSA, 0.5 mM IBMX and 0.4% DMSO. In the same plate and assay buffer as the tested compounds, were EC100 control wells containing GLP1 (7-36) peptide (Bachem, cat #H-6795) at a final concentration of 2 nM and also EC0 control wells containing no peptide. This plate was incubated at rt in the dark for 12 min after adding the compounds to the cells. Luminescence was then measured with an Envision 2104 Multilabel reader with “TRF Light Unit, 337 nm” (PerkinElmer) using the Ultra-Sensitive protocol setting “384-well US luminescence detector” with the 384-well luminescence aperture, 0.1 seconds per well. cAMP activity was calculated as percent of the GLP1 (7-36) EC100 control wells: [(sample signal−mean EC0 signal)/(mean EC100 of GLP1 (7-36) signal−mean EC0 signal)}*100. Curve fitting for EC50 determinations was performed in the Helios module of the software package DAVID. The 4-parameter logistic model, Hill slope was used: y=Ainf+(A0−Ainf)/(1+(x/AC50)^Hill Slope) where y is the functional response; x is the compound concentration; A0 is the minimum value (at 0 dose); Ainf is the maximum value (at infinite dose); AC50 corresponds to the point of inflection (i.e. the point on the sigmoid shaped curve halfway between A0 and Ainf). The EC50 value was represented by the AC50 value calculated from Helios in μM. Emax is the maximal activity detected within the concentration range, derived from the fitted curve. […]

[2] = Pharmacokinetics in C57BL/6 mice (i.v. and oral); settings: for AUC(0-inf) / Vd / clearance / half-life / Cmax / Tmax: male, C57BL/6, mouse; for BAV: male C57BL/6 mice, 3 mg/kg oral dose vs 1 mg/kg i.v.
Protocol: Blood concentration versus time profiles were obtained from 2 groups of 3 male mice. The compound was administered intravenously (i.v.) by bolus injection (5 mL/kg) at a dose of 1 mg/kg in N-methyl-2-pyrrolidone (10%) and 4% bovine serum albumins (BSA) in phosphate-buffered saline (PBS) (90%) or orally administered at a dose of 3 mg/kg (10 mL/kg) as a homogenous suspension of Water (99.4%), Tween 80 (0.1%) and methylcellulose (0.5%). Following compound administration, blood (10 μL/time point) were collected by puncture of the tail vein into ethylenediaminetetraacetic (EDTA)-coated tubes, at 0.083 (i.v. only), 0.25, 0.5, 1, 3, 7, & 24 hours post dose.
Bioanalysis: An aliquot of 10 μL of blood sample and matrix calibration standards were added to a 96-well plate. The samples were extracted using a protein precipitation procedure with addition of 80 μL acetonitrile containing internal standard. The samples were vortexed and centrifuged at 3000 rpm for 5 minutes. A 70 μL aliquot of supernatant was transferred to a clean 96-well plate and a 70 μL of water was added to each well and vortexed. Samples were analyzed and quantified by LC-MS/MS using the conditions outlined below.
• Mass Spectrometer: AP16500+ • Liquid Chromatograph: Agilent 1290 for Compound 3; Shimadzu LC30 AD for Compound 5 • Autosampler (ALS): Agilent 1290 for Compound 3; Shimadzu SIL30AC for Compound 5
• LC Column Acquity BEH C18, 50×2.1 mm, 1.7 μm • Solvent A: • 5:95:0.1 (v:v:v) Acetonitrile:Water:Formic Acid for Compound 3 • 100:0.1 (v:v) Water:Formic acid for Compound 5 • Solvent B: • 50:50:0.1 (v:v:v) Acetonitrile:Methanol:Formic Acid for Compound 3 • 100:0.1 (v:v) Acetonitrile:Formic acid for Compound 5 • Injection Volume [μL]: 1 for Compound 5; 20 for Compound 3 • Column Oven Temp. [° C.]: 50 Compound 3; 40 for Compound 5 • ALS Temp. [° C.]: 5
• Ion Source: TIS • Polarity: Positive • Temperature: 550 • Gas 1: 55 • Gas 2: 55 • Curtain Gas: 20 • Ion Spray Voltage [V]: 5500 for Compound 5; 4500 for Compound 3 • CAD Gas: 9

[3] = cAMP, normalized to GLP1(7-36) maximum response

Chain of human GLP1R (hGLP1R) (P43220 24-463): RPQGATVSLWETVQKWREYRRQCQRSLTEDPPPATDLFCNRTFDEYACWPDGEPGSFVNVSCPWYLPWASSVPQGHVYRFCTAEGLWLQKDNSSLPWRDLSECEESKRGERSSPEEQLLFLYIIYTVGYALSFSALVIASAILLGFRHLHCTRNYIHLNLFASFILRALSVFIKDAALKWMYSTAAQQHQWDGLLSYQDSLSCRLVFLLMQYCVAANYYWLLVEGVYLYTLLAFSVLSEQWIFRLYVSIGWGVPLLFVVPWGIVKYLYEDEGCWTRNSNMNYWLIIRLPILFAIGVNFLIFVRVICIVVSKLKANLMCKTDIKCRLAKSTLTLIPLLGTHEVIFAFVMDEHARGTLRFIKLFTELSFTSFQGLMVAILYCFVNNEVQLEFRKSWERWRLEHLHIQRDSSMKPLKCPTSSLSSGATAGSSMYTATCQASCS

## Cc1nc(CN2CCC(c3cccc4c3O[C@@](C)(c3ccc(Cl)cc3F)O4)CC2)n(C[C@@H]2CCO2)c1C(O)CC(=O)O (mixture of isomers) [Compound C-28, 3-(2-((4-((S)-2-(4-chloro-2-fluorophenyl)-2-methylbenzo[d][1,3]dioxol-4-yl)piperidin-1-yl)methyl)-4-methyl-1-(((S)-oxetan-2-yl)methyl)-1H-imidazol-5-yl)-3-hydroxypropanoic acid]
[1]; [3]
  Emax: 110%
[1]
  EC50: 1.08 nM

## CC(Cc1cnc(CN2CCC(c3cccc4c3O[C@@](C)(c3ccc(Cl)cc3F)O4)CC2)n1C[C@@H]1CCO1)C(=O)O (single isomer, unassigned) [Compound C-17a]
[1]; [3]
  Emax: 104%
[1]
  EC50: 1.2 nM

## CC(Cc1cnc(CN2CCC(c3cccc4c3O[C@@](C)(c3ccc(Cl)cc3F)O4)CC2)n1C[C@@H]1CCO1)C(=O)O (single isomer, unassigned) [Compound C-17b]
[1]; [3]
  Emax mean: 106%
[1]
  EC50: 1.2 nM

## C[C@]1(c2ccc(Cl)cc2F)Oc2cccc(C3CCN(Cc4ncc(/C=C/C(=O)O)n4C[C@@H]4CCO4)CC3)c2O1 [Compound 1]
[2]; whole blood, iv, 1 mg/kg
  AUC(0-inf): 0.509 ± 0.389 µM·h
  Vd: 4.83 ± 1.79 L/kg
  clearance: 82.3 ± 51.7 mL/min/kg
  half-life: 1.06 ± 0.141 h
[2]; whole blood, po, 3 mg/kg
  AUC(0-inf): 0.538 ± 0.136 µM·h
  Cmax: 240 ± 75.4 nM
  Tmax: 0.75 ± 0.434 h
  half-life: 1.22 ± 0.305 h

## Cc1nc(CN2CCC(c3cccc4c3O[C@@](C)(c3ccc(Cl)cc3F)O4)CC2)n(C[C@@H]2CCO2)c1C(=O)O [Compound 3]
[2]
  BAV: 50.1 ± 19.4%
[2]; in vivo, iv, 1 mg/kg
  AUC(0-inf): 2.79 ± 1.35 µM·h
  Vd: 0.903 ± 0.282 L/kg
  clearance: 12.3 ± 4.78 mL/min/kg
  half-life: 1.28 ± 0.223 h
[2]; in vivo, po, 3 mg/kg
  AUC(0-inf): 3.74 ± 0.641 µM·h
  Cmax: 1470 ± 354 nM
  Tmax: 0.667 ± 0.289 h
  half-life: 1.84 ± 0.8 h

## Cc1nc(CN2CCC(c3cccc4c3O[C@@](C)(c3ccc(Cl)cc3F)O4)CC2)n(C[C@@H]2CCO2)c1/C=C/C(=O)O [Compound 5]
[2]; whole blood, iv, 1 mg/kg
  AUC(0-inf): 5.02 ± 0.629 µM·h
  Vd: 0.604 ± 0.02 L/kg
  clearance: 5.76 ± 0.711 mL/min/kg
  half-life: 1.42 ± 0.121 h
[2]; whole blood, po, 3 mg/kg
  AUC(0-inf): 7.91 ± 0.764 µM·h
  Cmax: 1060 ± 450 nM
  Tmax: 1 h
  half-life: 2.82 ± 0.74 h

## C[C@]1(c2ccc(Cl)cc2F)Oc2cccc(C3CCN(Cc4nc(C(F)(F)F)c(/C=C/C(=O)O)n4C[C@@H]4CCO4)CC3)c2O1 [Compound 8]
[2]
  BAV: 60.9 ± 5.26%
[2]; in vivo, iv, 1 mg/kg
  AUC(0-inf): 3.75 ± 0.149 µM·h
  Vd: 1.65 ± 0.025 L/kg
  clearance: 7 ± 0.283 mL/min/kg
  half-life: 3.02 ± 0.168 h
[2]; in vivo, po, 3 mg/kg
  AUC(0-inf): 6.86 ± 0.591 µM·h
  Cmax: 768 ± 112 nM
  Tmax: 1 h
  half-life: 2.7 ± 0.202 h

## Cc1c(C(=O)O)nc(CN2CCC(c3cccc4c3O[C@@](C)(c3ccc(Cl)cc3F)O4)CC2)n1C[C@@H]1CCO1 [Compound C-4, 2-((4-((S)-2-(4-chloro-2-fluorophenyl)-2-methylbenzo[d][1,3]dioxol-4-yl)piperidin-1-yl)methyl)-5-methyl-1-(((S)-oxetan-2-yl)methyl)-1H-imidazole-4-carboxylic acid]
[1]; [3]
  Emax: 109%
[1]
  EC50: 8.28 nM

## Cc1nc(CN2CCC(c3cccc4c3O[C@@](C)(c3ccc(Cl)cc3F)O4)CC2)n(C[C@@H]2CCO2)c1C1CC1C(=O)O (stereo partly shown) [Compound C-9]
[1]; [3]
  Emax: 109%
[1]
  EC50: 0.418 nM

## Cc1nc(CN2CCC(c3cccc4c3O[C@@](C)(c3ccc(Cl)cc3F)O4)CC2)n(C[C@@H]2CCO2)c1C12CC(C(=O)O)(C1)C2 [Compound C-23a, 3-(2-((4-((S)-2-(4-chloro-2-fluorophenyl)-2-methylbenzo[d][1,3]dioxol-4-yl)piperidin-1-yl)methyl)-4-methyl-1-(((S)-oxetan-2-yl)methyl)-1H-imidazol-5-yl)bicyclo[1.1.1]pentane-1-carboxylic acid]
[1]; [3]
  Emax: 107%
[1]
  EC50: 1.2 nM

## C[C@]1(c2ccc(Cl)cc2F)Oc2cccc(C3CCN(Cc4nc(-c5nnn[nH]5)c(C(F)(F)F)n4C[C@@H]4CCO4)CC3)c2O1 [Compound C-25, 4-((S)-2-(4-chloro-2-fluorophenyl)-2-methylbenzo[d][1,3]dioxol-4-yl)-1-((1-(((S)-oxetan-2-yl)methyl)-4-(1H-tetrazol-5-yl)-5-(trifluoromethyl)-1H-imidazol-2-yl)methyl)piperidine]
[1]; [3]
  Emax: 110%
[1]
  EC50: 8.63 nM

## CCc1nc(CN2CCC(c3cccc4c3O[C@@](C)(c3ccc(Cl)cc3F)O4)CC2)n(C[C@@H]2CCO2)c1C(=O)O [Compound C-27, 2-((4-((S)-2-(4-chloro-2-fluorophenyl)-2-methylbenzo[d][1,3]dioxol-4-yl)piperidin-1-yl)methyl)-4-ethyl-1-(((S)-oxetan-2-yl)methyl)-1H-imidazole-5-carboxylic acid]
[1]; [3]
  Emax: 113%
[1]
  EC50: 2.96 nM

## C[C@]1(c2ccc(Cl)cc2F)Oc2cccc(C3CCN(Cc4nc(-c5ccc(F)cc5)c(C#CC(=O)O)n4C[C@@H]4CCO4)CC3)c2O1 [Compound C-29, 3-(2-((4-((S)-2-(4-chloro-2-fluorophenyl)-2-methylbenzo[d][1,3]dioxol-4-yl)piperidin-1-yl)methyl)-4-(4-fluorophenyl)-1-(((S)-oxetan-2-yl)methyl)-1H-imidazol-5-yl)propiolic acid]
[1]; [3]
  Emax: 104%
[1]
  EC50: 0.0473 nM

## C[C@]1(c2ccc(Cl)cc2F)Oc2cccc(C3CCN(Cc4nc5ccc(C(=O)O)cc5n4C[C@@H]4CCO4)CC3)c2O1 [compound 1, 2-((4-((S)-2-(4-chloro-2-fluorophenyl)-2-methylbenzo[d][1,3]dioxol-4-yl)piperidin-1-yl)methyl)-1-(((S)-oxetan-2-yl)methyl)-1H-benzo[d]imidazole-6-carboxylic acid, reference compound]
[2]
  BAV: 50.7%
[2]; in vivo, iv, 1 mg/kg
  AUC(0-inf): 1.19 ± 0.205 µM·h
  Vd: 2.13 ± 0.434 L/kg
  clearance: 24.1 ± 4.52 mL/min/kg
  half-life: 1.25 ± 0.02 h
[2]; in vivo, po, 3 mg/kg
  AUC(0-inf): 1.98 µM·h
  Cmax: 430 ± 53.4 nM
  Tmax: 1 h
  half-life: 3.19 h

From patent publication US20240182456A1, “2-((4-((S)-2-(4-CHLORO-2-FLUOROPHENYL)-2-METHYLBENZO[D][1,3]DIOXOL-4-YL)PIPERIDIN-1-YL)METHYL)-1-(((S)-OXETAN-2-YL)METHYL)-1H-IMIDAZOLE DERIVATIVES AS ACTIVATORS OF THE GLP1 RECEPTOR FOR THE TREATMENT OF OBESITY” (Novartis AG, priority 2021, published 2024)
